Results as given in the supplement of paper PMC10307832.

Columns and labels:
Assay in all cases: relative viability (nuclei count vs DMSO), 5 days (fraction); higher = more cells survive
[1] = compound: CC1CC(=O)N(C2=CN=C(N=C2N1C3CCCC3)NC4=C(C=C(C=C4)C(=O)NC5CCN(CC5)C)OC)C [NPK76-II-72-1] + Cc1nc(NC(=O)N2CCC[C@H]2C(N)=O)sc1-c1ccnc(C(C)(C)C(F)(F)F)c1 [Alpelisib] (partner 2 µM)
In short: (§1)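 Relative viability is defined as nuclei in treated wells over nuclei in vehicle wells. Duplicate plates were run and medians reported. Lung cancer cell lines in 1536-well plates were dosed by pin tool one day after seeding, with one drug or with a fixed anchor-drug dose plus five library-drug doses (not always all listed) in √10 steps, and nuclei were counted after 5 days.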

NPK76-II-72-1 + Olaparib = compound: CC1CC(=O)N(C2=CN=C(N=C2N1C3CCCC3)NC4=C(C=C(C=C4)C(=O)NC5CCN(CC5)C)OC)C [NPK76-II-72-1] + O=C(c1cc(Cc2n[nH]c(=O)c3ccccc23)ccc1F)N1CCN(C(=O)C2CC2)CC1 [Olaparib] (partner 8 µM)
In short: as §1

BI-2536 + Bortezomib = compound: CC[C@@H]1C(=O)N(C)c2cnc(Nc3ccc(C(=O)NC4CCN(C)CC4)cc3OC)nc2N1C1CCCC1 [BI-2536] + CC(C)C[C@H](NC(=O)[C@H](Cc1ccccc1)NC(=O)c1cnccn1)B(O)O [Bortezomib] (partner 0.002 µM)
In short: as §1

BI-2536 + Linsitinib = compound: CC[C@@H]1C(=O)N(C)c2cnc(Nc3ccc(C(=O)NC4CCN(C)CC4)cc3OC)nc2N1C1CCCC1 [BI-2536] + C[C@]1(O)C[C@@H](c2nc(-c3ccc4ccc(-c5ccccc5)nc4c3)c3c(N)nccn32)C1 [Linsitinib] (partner 1 µM)
In short: as §1

Row | Cell Line | relative viability ([1]; first compound 0.01 µM) | relative viability ([1]; first compound 0.03162 µM) | relative viability ([1]; first compound 0.1 µM) | relative viability ([1]; first compound 0.3162 µM) | relative viability ([1]; first compound 1 µM) | relative viability (NPK76-II-72-1 + Olaparib; first compound 0.01 µM) | relative viability (NPK76-II-72-1 + Olaparib; first compound 0.03162 µM) | relative viability (NPK76-II-72-1 + Olaparib; first compound 0.1 µM) | relative viability (NPK76-II-72-1 + Olaparib; first compound 0.3162 µM) | relative viability (NPK76-II-72-1 + Olaparib; first compound 1 µM) | relative viability (BI-2536 + Bortezomib; first compound 0.01 µM) | relative viability (BI-2536 + Bortezomib; first compound 0.03162 µM) | relative viability (BI-2536 + Bortezomib; first compound 0.1 µM) | relative viability (BI-2536 + Bortezomib; first compound 0.3162 µM) | relative viability (BI-2536 + Bortezomib; first compound 1 µM) | relative viability (BI-2536 + Linsitinib; first compound 0.01 µM) | relative viability (BI-2536 + Linsitinib; first compound 0.03162 µM) | relative viability (BI-2536 + Linsitinib; first compound 0.1 µM) | relative viability (BI-2536 + Linsitinib; first compound 0.3162 µM) | relative viability (BI-2536 + Linsitinib; first compound 1 µM)
1 | LU99A | 0.462 | 0.578 | 0.576 | 0.48 | 0.563 | 0.259 | 0.244 | 0.297 | 0.253 | 0.285 | 1.04 | 1.12 | 0.244 | 0.19 | 0.193 | 0.593 | 0.534 | 0.472 | 0.172 | 0.194
2 | NCI-H1355 | 0.834 | 0.827 | 0.544 | 0.755 | 0.849 | 0.682 | 0.755 | 0.7 | 0.692 | 0.841 | 1.21 | 1.21 | 0.874 | 0.303 | 0.184 | 0.877 | 0.889 | 0.856 | 0.227 | 0.178
3 | HCC-78 | – | 0.402 | 0.334 | – | 0.337 | 0.86 | 0.872 | 0.476 | 0.869 | 0.85 | 0.505 | 0.559 | 0.487 | 0.352 | 0.219 | 0.613 | 0.481 | 0.511 | 0.52 | 0.207
4 | HCC-15 | 0.828 | 0.965 | 0.875 | 0.919 | 0.97 | 0.679 | 0.766 | 0.639 | 0.689 | 0.741 | 1.01 | 0.96 | 0.902 | 0.542 | 0.114 | 0.921 | 0.965 | 0.815 | 0.28 | 0.143
5 | EKVX | 0.796 | 0.897 | 0.884 | 0.716 | 1.1 | 0.755 | 0.898 | 0.735 | – | 1.02 | 0.976 | 1.16 | 1.03 | 0.164 | 0.148 | 1.1 | 0.96 | 0.818 | 0.368 | 0.169
6 | NCI-H2087 | 1.1 | 1.1 | 1.07 | 1.01 | 1.48 | 0.532 | 0.653 | 0.548 | 0.672 | 0.626 | 0.858 | 0.677 | 0.693 | 0.128 | 0.139 | 0.83 | 1.06 | 0.927 | 0.197 | 0.163
7 | NCI-H1437 | 0.972 | 0.945 | 0.974 | 0.898 | 1 | 0.626 | 0.666 | 0.613 | 0.624 | 0.624 | 0.543 | 0.463 | 0.416 | 0.136 | 0.089 | 1.03 | 0.901 | 0.941 | 0.123 | 0.0942
8 | COR-L23 | 0.638 | 0.821 | 0.815 | 0.815 | 0.822 | 0.321 | 0.38 | 0.34 | 0.335 | 0.396 | 1.08 | 0.901 | 0.27 | – | 0.101 | 0.961 | 1.06 | 0.605 | 0.104 | 0.0946
9 | ABC-1 | 0.839 | 0.982 | 1.11 | 0.953 | 1 | 0.606 | 0.537 | 0.764 | 0.803 | 1.34 | 0.252 | 0.29 | 0.265 | 0.242 | 0.213 | 0.816 | 0.838 | 0.895 | 0.292 | 0.253
10 | NCI-H838 | 0.974 | 0.942 | 0.972 | 0.948 | 1.02 | 0.712 | 0.846 | 0.768 | 0.738 | 0.805 | 0.878 | 0.824 | 0.16 | 0.115 | 0.111 | 1.05 | 0.961 | 0.96 | 0.136 | 0.126
11 | A-427 | 1.08 | 1.1 | 1.02 | 1.09 | 1.03 | 0.644 | 0.772 | 0.74 | 0.653 | 0.869 | 0.955 | 1.04 | 0.763 | 0.123 | 0.1 | 1.15 | 1.23 | 1.08 | 1.13 | 0.304
12 | NCI-H1792 | 0.747 | 0.793 | 0.668 | 0.711 | 0.767 | – | 0.362 | 0.357 | 0.419 | 0.742 | 0.985 | 1 | 1.06 | 0.716 | 0.147 | 0.585 | 0.634 | 0.495 | 0.444 | 0.131
13 | LCLC-97TM1 | – | 0.24 | 0.18 | 0.235 | 0.257 | 0.357 | 0.394 | 0.346 | 0.249 | 0.424 | 0.658 | 0.408 | 0.0735 | 0.0639 | 0.0648 | 0.157 | 0.239 | 0.168 | 0.143 | 0.113
14 | NCI-H1703 | 0.316 | 0.343 | 0.35 | 0.314 | 0.4 | 0.473 | 0.54 | 0.381 | 0.33 | 0.431 | 0.313 | 0.252 | 0.13 | 0.161 | 0.11 | 0.77 | 0.296 | 0.574 | 0.117 | 0.0956
15 | LCLC-103H | 0.929 | 0.928 | 1.07 | 0.925 | 0.993 | – | 0.744 | 0.74 | 0.796 | 0.759 | 1.05 | 1.07 | 0.813 | 0.986 | 0.19 | 1.16 | 1.04 | 1.05 | 0.942 | 0.143
